# From patent EP1229025A1, “NOVEL QUINAZOLINE DERIVATIVES” (Japan Energy Corporation, priority 1999, dated 2001)
# Test system: IL-5 production
# Experiment: IL-5 production inhibiting test in OVA-stimulated spleen cells of immunised mouse (ELISA)
# Assay type: cell-based
# Settings: 72 h, spleen cells of OVA-immunised BALB/c-mouse, OVA 0.5 mg/ml, 3 days
# Description: (§1) Example 146: IL-4 and IL-5 production inhibiting test
# (§2) A 6-weeks-old BALB/c-mouse (Nippon Charles River) was bred preparatively for 1 week and given at the day 0 and day 14 intraperitoneal injection of 100 µl PBS to give immunity which PBS contained 0.1 mg/ml of Ovalbumin(OVA) and 40 mg/ml of aluminum hydroxide. At the day 21 the spleen was taken out from the mouse. The spleen was dissected with a pincette in cooled PBS, passed through a mesh and subjected to centrifugation at 4 °C at 1,500 rpm for 5 minutes. The cells was added with 5 ml of 0.2% NaCI to destroy erythrocytes, and then was made isotonic by adding 5 ml of 1.6% of NaCl. After centrifugation at 4 °C, 1,500 rpm for 5 minutes, the cells were washed twice with 10 ml ofRPMI1640 culture medium. The obtained spleen cells were suspended in cRPMI1640 medium, and the number of the cells was measured by Tuerk dying. After being adjusted to 1 × 10^7 cells/ml, the cells were planted in 100 µl/well on a 96-well plate (FALCON). The cells were cultured at 37 °C under 5% CO2 atmosphere for about 4 hours. OVA was prepared to 10 mg/ml with cRPMI1640 culture medium and subjected to sterile filtration. The 10 mg/ml OVA was diluted with cRPMI1640 culture medium to give 1 mg/ml OVA. A compound to be tested which was dissolved in DMSO in at 1,000-fold concentration was diluted up to 500-fold with cRPMI1640 culture medium containing 1 mg/ml OVA and added in 100 µl/well to the cells which had been planted on the previously mentioned 96-well plate (final concentration of OVA: 0.5 mg/ml). As the controls, the solutions were made by diluting DMSO of the same volume as with the test compounds with cRPMI1640 culture medium containing 1 mg/ml OVA, and they were added to the cells. These cells were cultured at 37 °C under 5%CO2 atmosphere for 3 days. IL-4 and IL-5 in the culture supernatants after 3 days were quantitatively determined by ELISA method. IL-4 and IL-5 were quantitatively determined using IL-4 Development Kit (Genzyme Techne) and mouse IL-5 MiniKit (ENDOGEN), respectively. The production inhibiting rates of each tested compound against IL-4 are shown in Table 22, those against IL-5 in Table 23.
row,IC50 [nM],SMILES
1,2000,"O=[N+]([O-])c1cc2c(NCc3ccccc3F)ncnc2cc1N1CCNCC1 [Example 61, 4-(2-fluorobenzylamino)-6-nitro-7-(piperazin-1-yl)quinazoline]"
2,1400,"O=[N+]([O-])c1cc2c(NCc3cccc(F)c3)ncnc2cc1N1CCNCC1 [Example 62, 4-(3-fluorobenzylamino)-6-nitro-7-(piperazin-1-yl)quinazoline]"
3,900,"O=[N+]([O-])c1cc2c(NCc3cccs3)ncnc2cc1N1CCNCC1 [Example 48, 6-nitro-7-(piperazin-1-yl)-4-[(2-thienyl)methylamino]quinazoline]"

# Test system: TNF-α production
# Experiment: TNF-α production inhibiting test using human PBMC (LPS stimulus, ELISA)
# Assay type: cell-based
# Settings: LPS 10 ng/ml, 16 hours, ELISA of culture supernatants
# Description: Example 145: TNF-α production inhibiting test using human PBMC (peripheral blood mononuclear cells)
# Preparation of human PBMC
# The blood of a healthy person was taken with a vacuum blood-collecting tube (Nipro neotube) and diluted up to two-fold with physiological saline (Otsuka Pharmaceuticals). To the diluted blood was added 6% dextran T-500 (prepared after dissolution in physiological saline (Otsuka Pharmaceuticals) and sterilization with an autoclave) so as to make a final concentration of 1%. The solution was subjected to tumble mixing and allowed to stand at room temperature for 30 minutes to precipitate the erythrocytes. The supernatant was collected and subjected to centrifugation at 20 °C and at 1,500 rpm for 10 minutes. The cells were suspended in 3 ml of RPMI1640 culture medium (Asahi Technogllas) and overlaid on the solution surface of 3 ml Lymphoprep (NYCOMED). Further, with 1.5 ml of RPMI1640 culture medium being added to the tube which had contained the cell suspension liquid, the cells attached to the tube, which had remained uncollected, were suspended for collection and overlaid on the Lymphoprep previously mentioned. This operation was repeated again. After centrifugation at 20 °C and at 2,000 rpm for 30 minutes, there was collected a fraction of peripheral blood mononuclear cells present in the boundary surface between the Lymphoprep and the RPMI1640 culture medium. The cells were washed twice with 10 ml RPMI1640 culture medium to remove the Lymphoprep and then suspended in a RPMI1640 culture medium added with 10% bovine fetal serum (IRVINE SCIENTIFIC), 100 U/ml penicillin and 100 µg/ml streptomycin (hereinafter referred to as cRPMI1640 culture medium). The number of the cells was measured by Tuerk dying, and the cells, after adjustment to 3 × 10^6 cells/ml, were planted in 100 µl/well on a 96-well plate (FALCON). The cells were cultured at 37 °C under 5%CO2 atmosphere for about 5 hours.
# Induction of TNF-α production by LPS stimulus
# LPS (E.coli 0111:B4, DIFCO), which had been prepared to 10 mg/ml with water and kept at -20, was diluted to 100 µg/ml with cRPMI1640 culture medium and subjected to sterile filtration. The 100 µg/ml LPS was diluted with cRPMI1640 culture medium to prepare 20 ng/ml LPS. A compound to be tested which was dissolved in DMSO at 1,000-fold concentration was diluted to 500-fold with cRPMI1640 culture medium containing 20 ng/ml LPS and added in 100 µl/well to the cells which had been planted on the previously mentioned 96-well plate (final concentration of LPS: 10 ng/ml). For use as the control group, the solutions were made by diluting DMSO of the same volume as in the test compounds with cRPMI1640 culture medium containing 20 ng/ml LPS, and they were added to the cells. These cells were cultured at 37 °C under 5%CO2 atmosphere for 16 hours.
# Determination of TNF-α activity (ELISA method)
# To the 96-well plate the mouse anti-human TNF-α antibody (prepared to 2 µg/ml with Coating buffer*^1) was added so as to make 100 µl/well and allowed to stand at 4 °C overnight. After 5-times washing with Wash buffer*^2 (300µl/well), the Blocking buffer*^3 was added to the solutions, which were allowed to stand 37 °C for 2 hours. The culture supernatants were diluted up to 5-fold in the plate (supernatant 20 µl being added to 80 µl of cRPMI1640 culture medium). Simultaneously, for using for a calibration curve, a series of dilution of recombinant human TNF-α was prepared arid allowed to stand 37 °C for 1 hour. After 5-times washing with Wash buffer (300 µl /well), biotinylated rabbit anti-human TNF-α antibody (prepared to 0.25 µg/ml with Antibody diluent*^4) was added so as to make 100 µl /well and allowed to stand at 37 °C for 1 hour. After 5-times washing with Wash buffer (300 µl /well), Streptavidin-Horseradish peroxidase(prepared to 1:4000 with Antibody diluent) was added to make 100 µl /well and allowed to stand at 37 °C for 15 minutes. […]
row,IC50 [nM],SMILES
1,300,"O=[N+]([O-])c1cc2c(NCc3ccccc3F)ncnc2cc1N1CCNCC1 [Example 61, 4-(2-fluorobenzylamino)-6-nitro-7-(piperazin-1-yl)quinazoline]"
2,300,"O=[N+]([O-])c1cc2c(NCc3cccc(F)c3)ncnc2cc1N1CCNCC1 [Example 62, 4-(3-fluorobenzylamino)-6-nitro-7-(piperazin-1-yl)quinazoline]"
3,400,"O=[N+]([O-])c1cc2c(NCc3ccc(F)cc3)ncnc2cc1N1CCNCC1 [Example 25, 4-(4-fluorobenzylamino)-6-nitro-7-(piperazin-1-yl)quinazoline]"
4,400,"O=[N+]([O-])c1cc2c(NCc3ccccc3)ncnc2cc1N1CCNCC1 [Example 18, 4-(benzylamino)-6-nitro-7-(piperazin-1-yl)quinazoline]"
5,7200,"CC(CNc1ncnc2cc(N3CCNCC3)c([N+](=O)[O-])cc12)c1ccccc1 (stereo not drawn) [Example 82, 4-(2-methyl-2-phenylethylamino)-6-nitro-7-(piperazin-1-yl)quinazoline]"
6,500,"O=[N+]([O-])c1cc2c(NCCc3cccs3)ncnc2cc1N1CCNCC1 [Example 42, 6-nitro-7-(piperazin-1-yl)-4-[2-(2-thienyl)ethylamino]quinazoline]"
7,2000,"Fc1cc2c(NCCCc3ccc4c(c3)OCO4)ncnc2cc1N1CCNCC1 [Example 120, 6-fluoro-4-[3-[(3,4-methylenedioxy)phenyl]propylamino]-7-(piperazin-1-yl)quinazoline]"
8,3500,"O=[N+]([O-])c1cc2c(NCCc3ccncc3)ncnc2cc1N1CCNCC1 [Example 58, 6-nitro-7-(piperazin-1-yl)-4-[2-(4-pyridyl)ethylamino]quinazoline]"
9,400,"O=[N+]([O-])c1cc2c(NCCc3ccc(Br)cc3)ncnc2cc1N1CCNCC1 [Example 72, 4-[2-(4-bromophenyl)ethylamino]-6-nitro-7-(piperazin-1-yl)quinazoline]"
10,3300,O=[N+]([O-])c1cc2c(NCCc3ccc4c(c3)OCO4)ncnc2cc1N1CCNCC1 [Example 125]
11,2100,"O=[N+]([O-])c1cc2c(NCCc3ccc(Cl)cc3)ncnc2cc1N1CCCNCC1 [Example 2, 4-[2-(4-chlorophenyl)ethylamino]-7-(homopiperazin-1-yl)-6-nitroquinazoline]"
12,1700,"O=[N+]([O-])c1cc2c(Nc3ccc4c(c3)OCO4)ncnc2cc1N1CCNCC1 [Example 124, 4-[(3,4-methylenedioxy)anilino]-6-nitro-7-(piperazin-1-yl)quinazoline]"
13,800,"O=[N+]([O-])c1cc2c(NCCc3ccc(Cl)cc3)ncnc2cc1N1CCNCC1 [Example 1, 4-[2-(4-chlorophenyl)ethylamino]-6-nitro-7-(piperazin-1-yl)quinazoline]"
14,1900,"Cc1ccc(CCNc2ncnc3cc(N4CCNCC4)c([N+](=O)[O-])cc23)cc1 [Example 75, 4-[2-(4-methylphenyl)ethylamino]-6-nitro-7-(piperazin-1-yl)quinazoline]"
15,600,"O=[N+]([O-])c1cc2c(NCCc3ccccc3Cl)ncnc2cc1N1CCNCC1 [Example 70, 4-[2-(2-chlorophenyl)ethylamino]-6-nitro-7-(piperazin-1-yl)quinazoline]"
16,500,"O=[N+]([O-])c1cc2c(NCCCc3ccc4c(c3)OCO4)ncnc2cc1N1CCNCC1 [Example 127, 4-[3-[(3,4-methylenedioxy)phenyl]propylamino]-6-nitro-7-(piperazin-1-yl)quinazoline]"
17,400,"Cc1ccc(CNc2ncnc3cc(N4CCNCC4)c([N+](=O)[O-])cc23)cc1 [Example 64, 4-(4-methylbenzylamino)-6-nitro-7-(piperazin-1-yl)quinazoline]"
18,1900,"O=[N+]([O-])c1cc2c(NCCc3ccc(Cl)cc3)ncnc2cc1N1CCN(CCO)CC1 [Example 5, 4-[2-(4-chlorophenyl)ethylamino]-7-[4-(2-hydroxyethyl)piperazin-1-yl)-6-nitroquinazoline]"
19,1400,"O=[N+]([O-])c1cc2c(N3CCN(c4ccc(Cl)cc4)CC3)ncnc2cc1N1CCNCC1 [Example 101, 4-[(4-chlorophenyl)piperazinyl]-6-nitro-7-piperazinylquinazoline]"
20,1400,"CN1CCN(c2cc3ncnc(NCCc4ccc(Cl)cc4)c3cc2[N+](=O)[O-])CC1 [Example 3, 4-[2-(4-chlorophenyl)ethylamino]-7-(4-methylpiperazin-1-yl)-6-nitroquinazoline]"
21,2100,"O=[N+]([O-])c1cc2c(N3CCN(c4ccccc4)CC3)ncnc2cc1N1CCNCC1 [Example 98, 6-nitro-4-(4-phenylpiperazinyl)-7-piperazinylquinazoline]"
22,300,"COc1ccc(CNc2ncnc3cc(N4CCNCC4)c([N+](=O)[O-])cc23)cc1 [Example 67, 4-(4-methoxylbenzylamino)-6-nitro-7-(piperazin-1-yl)quinazoline]"

row,SMILES,IC50 [nM]
1,"Fc1ccc(CNc2ncnc3cc(N4CCNCC4)c(F)cc23)cc1 [Example 113, 6-fluoro-4-(4-fluorobenzylamino)-7-(piperazin-1-yl)quinazoline]",900

# Test system: IL-4 production
# Experiment: IL-4 production inhibiting test in OVA-stimulated spleen cells of immunised mouse (ELISA)
# Assay type: cell-based
# Settings: 72 h, spleen cells of OVA-immunised BALB/c-mouse, OVA 0.5 mg/ml, 3 days
# Description: as §1, §2
row,IC50 [nM],SMILES
1,200,"O=[N+]([O-])c1cc2c(NCc3ccccc3F)ncnc2cc1N1CCNCC1 [Example 61, 4-(2-fluorobenzylamino)-6-nitro-7-(piperazin-1-yl)quinazoline]"
2,100,"O=[N+]([O-])c1cc2c(NCc3cccc(F)c3)ncnc2cc1N1CCNCC1 [Example 62, 4-(3-fluorobenzylamino)-6-nitro-7-(piperazin-1-yl)quinazoline]"
3,100,"O=[N+]([O-])c1cc2c(NCc3ccco3)ncnc2cc1N1CCNCC1 [Example 51, 4-[(2-furyl)methylamino]-6-nitro-7-(piperazin-1-yl)quinazoline]"
4,100,"O=[N+]([O-])c1cc2c(NCc3cccs3)ncnc2cc1N1CCNCC1 [Example 48, 6-nitro-7-(piperazin-1-yl)-4-[(2-thienyl)methylamino]quinazoline]"
